Experimental data from ChEMBL document CHEMBL4350964, “Discovery of the theobromine derivative MQS-14 that induces death of MGC-803 cells mainly through ROS-mediated mechanisms” (Eur J Med Chem, 2019).
Calls of active or inactive are those of the source. The calls are words filed in the database; no cut-off is given here.

Legend:
[1] = system: MGC-803; test: Cytotoxicity against human MGC803 cells assessed as growth inhibition at 20 uM after 48 hrs by MTT assay relative to control; assay type: functional; settings: MGC-803, 48 h
[2] = system: HGC-27; test: Cytotoxicity against human HGC27 cells assessed as reduction in cell viability by MTT assay; assay type: functional, cell-based
[3] = system: SGC-7901; test: Cytotoxicity against human SGC7901 cells assessed as reduction in cell viability by MTT assay; assay type: functional, cell-based
[4] = system: MGC-803; test: Cytotoxicity against human MGC803 cells assessed as reduction in cell viability by MTT assay; assay type: functional, cell-based
[5] = system: GES1; test: Cytotoxicity against human GES-1 cells assessed as reduction in cell viability by MTT assay; assay type: cell-based
[6] = Selectivity ratio of IC50 for human GES-1 cells to IC50 for human MGC803 cells; assay type: toxicity; settings: GES-1 cells and MGC803 cells, read-out: Ratio IC50
[7] = system: MGC-803; test: Cytotoxicity in human MGC803 cells assessed as cell viability at 6 uM pretreated with pan-caspase inhibitor Z-VAD-fmk for 1 hr followed by compound addition and measured after 24 hrs by MTT assay relative to control; assay type: functional; settings: read-out: Activity
[8] = organism: Homo sapiens; test: Activation of MAPK signalling in human MGC803 cells assessed as increase in JNK phosphorylation at 6 uM measured after 24 hrs in presence of NAC by Western blot analysis; assay type: cell-based
[9] = organism: Homo sapiens; test: Activation of MAPK signalling in human MGC803 cells assessed as change in p38 phosphorylation at 3 to 6 uM after 24 hrs by Western blot analysis; assay type: cell-based
[10] = system: MGC-803; test: Induction of mitochondrial dysfunction in human MGC803 cells assessed as reduction in mitochondrial potential at 3 to 9 uM after 24 hrs by JC-1 staining based flow cytometry; assay type: functional, cell-based
[11] = system: MGC-803; test: Induction of apoptosis in human MGC803 cells assessed as viable cells at 6 uM after 24 hrs by Annexin-V-FITC/propidium iodide staining based flow cytometry (reference value: 90.4%); assay type: functional; settings: MGC-803, 24 h, read-out: Activity
[12] = system: MGC-803; test: Induction of apoptosis in human MGC803 cells assessed as viable cells at 9 uM after 24 hrs by Annexin-V-FITC/propidium iodide staining based flow cytometry (reference value: 90.4%); assay type: functional; settings: MGC-803, 24 h, read-out: Activity
[13] = system: MGC-803; test: Induction of apoptosis in human MGC803 cells assessed as necrotic cells at 3 uM after 24 hrs by Annexin-V-FITC/propidium iodide staining based flow cytometry (reference value: 1.5%); assay type: functional
[14] = system: MGC-803; test: Induction of apoptosis in human MGC803 cells assessed as increase in cleaved caspase-9 expression up to 9 uM after 24 hrs by Western blot analysis; assay type: functional, cell-based
[15] = system: MGC-803; test: Antiproliferative activity against human MGC803 cells assessed as inhibition of cell division measured after 24 hrs by CFDA-SE staining based flow cytometric analysis; assay type: functional
[16] = system: MGC-803; test: Antiproliferative activity against human MGC803 cells assessed as inhibition of cell proliferation preincubated for 16 hrs followed by Edu addition and measured after 8 hrs by Hoechst 33342 staining-based confocal laser scanning microscopic analysis; assay type: functional
[17] = system: MGC-803; test: Induction of apoptosis in human MGC803 cells assessed as late apoptotic cells at 6 uM after 24 hrs by Annexin-V-FITC/propidium iodide staining based flow cytometry (reference value: 1.8%); assay type: functional
[18] = system: MGC-803; test: Induction of ROS generation in human MGC803 cells after 24 hrs by DCFH-DA dye based flow cytometry; assay type: functional, cell-based
[19] = system: MGC-803; test: Induction of apoptosis in human MGC803 cells assessed as necrotic cells at 9 uM after 24 hrs by Annexin-V-FITC/propidium iodide staining based flow cytometry (reference value: 1.5%); assay type: functional
[20] = system: MGC-803; test: Cytotoxicity in human MGC803 cells assessed as cell viability at 6 uM after 24 hrs by MTT assay relative to control; assay type: functional; settings: MGC-803, 24 h, read-out: Activity
[21] = organism: Homo sapiens; test: Activation of MAPK signalling in human MGC803 cells assessed as increase in JNK phosphorylation at 3 to 6 uM after 24 hrs by Western blot analysis; assay type: cell-based
[22] = system: MGC-803; test: Induction of apoptosis in human MGC803 cells assessed as late apoptotic cells at 3 uM after 24 hrs by Annexin-V-FITC/propidium iodide staining based flow cytometry (reference value: 1.8%); assay type: functional
[23] = system: MGC-803; test: Induction of apoptosis in human MGC803 cells assessed as increase in cleaved caspase-3 expression up to 9 uM after 24 hrs by Western blot analysis; assay type: functional, cell-based
[24] = system: MGC-803; test: Induction of DNA damage in human MGC803 cells assessed as formation of DNA long tailing at 6 uM in presence of NAC by comet assay; assay type: functional, cell-based
[25] = system: MGC-803; test: Induction of apoptosis in human MGC803 cells assessed as viable cells at 3 uM after 24 hrs by Annexin-V-FITC/propidium iodide staining based flow cytometry (reference value: 90.4%); assay type: functional; settings: MGC-803, 24 h, read-out: Activity
[26] = system: MGC-803; test: Effect on Cleaved caspase-7 level in human MGC803 cells assessed decrease in cleaved caspase-7 expression at 6 uM after 24 hrs in presence of NAC by Western blot analysis; assay type: functional, cell-based
[27] = organism: Homo sapiens; test: Activation of MAPK signalling in human MGC803 cells assessed as decrease in ERK phosphorylation measured after 24 hrs in presence of NAC by Western blot analysis; assay type: cell-based
[28] = system: MGC-803; test: Effect on Cleaved caspase-9 level in human MGC803 cells assessed decrease in cleaved caspase-9 expression at 6 uM after 24 hrs in presence of NAC by Western blot analysis; assay type: functional, cell-based
[29] = system: MGC-803; test: Induction of apoptosis in human MGC803 cells assessed as early apoptotic cells at 6 uM after 24 hrs by Annexin-V-FITC/propidium iodide staining based flow cytometry (reference value: 6.4%); assay type: functional
[30] = system: MGC-803; test: Induction of apoptosis in human MGC803 cells assessed as increase in cleaved PARP expression up to 9 uM after 24 hrs by Western blot analysis; assay type: functional, cell-based
[31] = system: MGC-803; test: Induction of apoptosis in human MGC803 cells assessed as early apoptotic cells at 9 uM after 24 hrs by Annexin-V-FITC/propidium iodide staining based flow cytometry (reference value: 6.4%); assay type: functional
[32] = system: MGC-803; test: Induction of apoptosis in human MGC803 cells assessed as increase in cleaved caspase-7 expression up to 9 uM after 24 hrs by Western blot analysis; assay type: functional, cell-based
[33] = system: MGC-803; test: Induction of apoptosis in human MGC803 cells assessed as early apoptotic cells at 3 uM after 24 hrs by Annexin-V-FITC/propidium iodide staining based flow cytometry (reference value: 6.4%); assay type: functional
[34] = organism: Homo sapiens; test: Activation of MAPK signalling in human MGC803 cells assessed as decrease in ERK phosphorylation at 3 to 6 uM after 24 hrs by Western blot analysis; assay type: cell-based
[35] = system: MGC-803; test: Cytotoxicity against human MGC803 cells assessed as reduction in cell viability at 6 uM after 24 hrs in presence of ROS scavenger N-acetyl-L-cysteine by MTT assay; assay type: functional, cell-based
[36] = system: MGC-803; test: Induction of apoptosis in human MGC803 cells assessed as late apoptotic cells at 9 uM after 24 hrs by Annexin-V-FITC/propidium iodide staining based flow cytometry (reference value: 1.8%); assay type: functional
[37] = system: MGC-803; test: Effect on Cleaved PARP level in human MGC803 cells assessed decrease in cleaved PARP expression at 6 uM after 24 hrs in presence of NAC by Western blot analysis; assay type: functional, cell-based
[38] = system: MGC-803; test: Induction of DNA damage in human MGC803 cells assessed as formation of DNA long tailing at 6 uM by comet assay; assay type: functional, cell-based
[39] = system: MGC-803; test: Induction of apoptosis in human MGC803 cells assessed as necrotic cells at 6 uM after 24 hrs by Annexin-V-FITC/propidium iodide staining based flow cytometry (reference value: 1.5%); assay type: functional

Structure (SMILES): Cn1cnc2c1c(=O)n(CC(=O)N1CCSCC1)c(=O)n2C
- inhibition at 20 µM [1]: 5.6%

Structure (SMILES): Cn1cnc2c1c(=O)n(CC(=O)O)c(=O)n2C
- inhibition at 20 µM [1]: 0.8%

Structure (SMILES): O=c1[nH]cc(F)c(=O)[nH]1 [FLUOROURACIL]
- IC50 [2]: 18 µM
- IC50 [3]: 21 µM
- IC50 [4]: 14 µM

Structure (SMILES): CCCn1c(SCc2ccc(F)cc2)nc2c1c(=O)[nH]c(=O)n2C
- IC50 [5]: 14 µM
- IC50 [2]: 9.7 µM
- inhibition at 20 µM [1]: 86.5%
- selectivity ratio [6]: 2 to 3
- IC50 [3]: 15 µM
- IC50 [4]: 5.4 µM

Structure (SMILES): CCCn1c(SCC(=O)Nc2ccc(C)cc2)nc2c1c(=O)[nH]c(=O)n2C
- inhibition at 20 µM [1]: 42.2%

Structure (SMILES): Cn1cnc2c1c(=O)n(CC(=O)N1CCOCC1)c(=O)n2C
- inhibition at 20 µM [1]: 19.9%

Structure (SMILES): Cn1cnc2c1c(=O)n(CC(=O)N1CCN(c3ccccc3)CC1)c(=O)n2C
- inhibition at 20 µM [1]: 4.6%

Structure (SMILES): Cn1cnc2c1c(=O)n(CC(=O)N1CCN(Cc3ccc(Cl)cc3)CC1)c(=O)n2C
- inhibition at 20 µM [1]: 22.5%

Structure (SMILES): Cn1cnc2c1c(=O)n(CC(=O)N1CCN(C(=O)OC(C)(C)C)CC1)c(=O)n2C
- inhibition at 20 µM [1]: 20%

Structure (SMILES): C=CC(=O)N1CCN(C(=O)Cn2c(=O)c3c(ncn3C)n(C)c2=O)CC1
- inhibition at 20 µM [1]: 1.3%

Structure (SMILES): Cc1ccc(S(=O)(=O)N2CCN(C(=O)Cn3c(=O)c4c(ncn4C)n(C)c3=O)CC2)cc1
- inhibition at 20 µM [1]: 20.1%

Structure (SMILES): CCCn1c(SCc2cccc(C)c2)nc2c1c(=O)[nH]c(=O)n2C
- IC50 [5]: 16 µM
- IC50 [2]: 10 µM
- inhibition at 20 µM [1]: 84.1%
- selectivity ratio [6]: 2 to 3
- IC50 [3]: 16 µM
- IC50 [4]: 7.2 µM

Structure (SMILES): CCCn1c(SCc2cccc(OC)c2)nc2c1c(=O)[nH]c(=O)n2C
- inhibition at 20 µM [1]: 34.2%

Structure (SMILES): C=CCSc1nc2c(c(=O)[nH]c(=O)n2C)n1CCC
- inhibition at 20 µM [1]: 5.5%

Structure (SMILES): Cn1cnc2c1c(=O)n(CC(=O)N1CCC(F)(F)CC1)c(=O)n2C
- inhibition at 20 µM [1]: 11.3%

Structure (SMILES): CCCn1c(SCc2ccc([N+](=O)[O-])cc2)nc2c1c(=O)[nH]c(=O)n2C
- inhibition at 20 µM [1]: 19.8%

Structure (SMILES): Cn1cnc2c1c(=O)n(CC(=O)N1CCN(C(=O)/C=C/c3ccccc3)CC1)c(=O)n2C
- inhibition at 20 µM [1]: 9.5%

Structure (SMILES): Cn1cnc2c1c(=O)n(CC(=O)N1CCC(N3CCCCC3)CC1)c(=O)n2C
- inhibition at 20 µM [1]: 19.8%

Structure (SMILES): Cn1cnc2c1c(=O)n(CC(=O)OC(C)(C)C)c(=O)n2C
- inhibition at 20 µM [1]: 17.2%

Structure (SMILES): CCCn1c(SCc2ccccc2C)nc2c1c(=O)[nH]c(=O)n2C
- viability at 6 µM [7]: 93%
- Activity [8]: inactive
- Activity [9]: Active
- Activity [10]: Dose-dependent effect
- viability at 6 µM [11]: 55%
- viability at 9 µM [12]: 23.1%
- IC50 [5]: 13 µM
- Activity [13]: 1.5%
- IC50 [2]: 9.1 µM
- Activity [14]: Active
- inhibition at 20 µM [1]: 88.6%
- inhibition [15]: Dose-dependent effect
- inhibition [16]: Dose-dependent effect
- Activity [17]: 2.4%
- Activity [18]: Dose-dependent effect
- Activity [19]: 0.9%
- viability at 6 µM [20]: 66%
- Activity [21]: Active
- Activity [22]: 1.7%
- Activity [23]: Active
- selectivity ratio [6]: 2 to 3
- IC50 [3]: 15 µM
- Activity [24]: inactive
- IC50 [4]: 6.6 µM
- viability at 3 µM [25]: 71.5%
- Activity [26]: Active
- Activity [27]: inactive
- Activity [28]: Active
- Activity [29]: 41.9%
- Activity [30]: Active
- Activity [31]: 44%
- Activity [32]: Active
- Activity [33]: 25.4%
- Activity [34]: Dose-dependent effect
- Activity [35]: inactive
- Activity [36]: 32%
- Activity [37]: Active
- Activity [38]: Active
- Activity [39]: 0.7%

Structure (SMILES): Cn1cnc2c1c(=O)n(CC(=O)N1CCCCC1)c(=O)n2C
- inhibition at 20 µM [1]: 16.8%

Structure (SMILES): CCCn1c(SCc2ccc(C(C)(C)C)cc2)nc2c1c(=O)[nH]c(=O)n2C
- inhibition at 20 µM [1]: 10.3%

Structure (SMILES): CN1CCN(C(=O)Cn2c(=O)c3c(ncn3C)n(C)c2=O)CC1
- inhibition at 20 µM [1]: 8.6%

Structure (SMILES): C#CCN1CCN(C(=O)Cn2c(=O)c3c(ncn3C)n(C)c2=O)CC1
- inhibition at 20 µM [1]: 14.1%
